Experimental data from patent publication US7244608B2, “Microorganism producing 5′-inosinic acid and process for producing 5′-inosinic acid using the same” (priority 2000, dated 2007).

Key:
[1] = test system: Corynebacterium ammoniagenes strain CJ112 (ATCC-6872); assay: Growth on minimal agar medium containing the agent; biochemical properties of parent strain; format: cell-based
Protocol: (§1) The biochemical properties of representative variants of the novel strain CJIP009 according to the present invention is shown in the following Table 1 (This invention is not limited to the following properties).
(§2) Corynebacterium ammoniagenes strain CJ112 (ATCC-6872), the parent strain, was suspended to 10^7˜10^8 cells/mL in the phosphate buffer (pH 7.0) or citrate buffer (pH 5.5). N-methyl-N′-nitro-N-nitrosoguanidine (NTG) was added to a final concentration of 10˜50 μg/mL at room temperature or 32° C. After 20˜40 minutes, cells were washed twice with 0.85% saline. Colonies were obtained by suitably suspending and spreading cells on a minimal medium (Medium 2) containing 1.7% agar. Then, each colony was tooth picked on to the minimal medium (Medium 2) containing 1.7% agar and on the minimal medium (Medium 2) containing 1.7% agar and […] of lysozyme. First, microorganisms that grew on the minimal medium containing 1.7% agar, but not on the minimal medium containing 40 μg/mL of lysozyme were selected. […] The colony of highly lysozyme sensitive microorganisms was cultivated on a nutrition medium (Medium 1), then cultivated for 24 hours on a seed medium (Medium 3), and cultivated for 3˜4 days on a culture medium (Medium 4) thereby to select LY002 that can produce 5′-inosinic acid accumulated in the culture medium at the largest amounts.

CS101 = assay: Growth on minimal agar medium containing the agent, strain CS101; format: cell-based, Corynebacterium ammoniagenes
[2] = test system: Corynebacterium ammoniagenes CJIP009 (KCCM-10226); assay: Growth on minimal agar medium containing the agent; biochemical properties of mutant CJIP009; format: cell-based; details: strain CJIP009 (KCCM-10226)
Protocol: The protocol by which the mutant microorganims of the present invention was isolated began with strain CJ 12 as the parental strain and consisted of several iterations of mutagenesis and screening. In each iteration, microorganisms were treated with X-ray irradiation, ultraviolet ray irradiation, and/or a chemical mutagen, such as N-methyl-N′-nitro-N-nitrosoguanidine (NTG), diethyl sulfate, ethyl amine, etc., and then screened for 5′-inosinic acid production. Treated bacteria were suitably suspended and spread on a minimal medium (Medium 2) containing 1.7% agar and each concentration of variants. Then, each colony was cultivated on a nutrition medium (Medium 1) followed by a seed medium (Medium 3) for 24 hours and a fermentation medium (Medium 4) for […]. Colonies that produced the highest levels of 5′-inosinic acid were selected for subsequent rounds of mutagenesis.
as §1
The mutant of Example 5, strain CITP13, was used as the parent strain for Example 6. CITP13 was suspended to 10^7˜10^8 cells/mL in the phosphate buffer (pH 7.0) or citrate buffer (pH 5.5). NTG mutagenesis was performed as in Example 1. Colonies were obtained by suitably suspending and spreading cells on a 3 minimal media (Medium 2), which contained 1.7% agar and 50 μg/ml, 75 μg/ml, or 100 μg/mL of azaserine, respectively. Then, each colony was cultivated on the nutrition medium (Medium 1), then cultivated for 24 hours on a seed medium (Medium 3), and cultivated for 3–4 days on a culture medium (Medium 4) thereby to select CJIP009 (KCCM-10226) that can produce 5′-inosinic acid accumulated in the culture medium at the largest amounts.

CISM10 = assay: Growth on minimal agar medium containing the agent, strain CISM10; format: cell-based, Corynebacterium ammoniagenes
Protocol: The mutant of Example 1, strain LY002, was used as the parent strain for Example 2. LY002 was suspended to 10^7˜10^8 cells/mL in the phosphate buffer (pH 7.0) or citrate buffer (pH 5.5). NTG mutagenesis was performed as in Example 1. Colonies were obtained by suitably suspending and spreading cells on a 3 minimal media (Medium 2), which contained 1.7% agar and 1,000 μg/ml, 1,500 μg/mL or 2,000μg/mL of streptomycin, respectively. Then, each colony was cultivated on the nutrition medium (Medium 1), then cultivated for 24 hours on a seed medium (Medium 3), and cultivated for 3˜4 days on a culture medium (Medium 4) thereby to select CISM10 that can produce 5′-inosinic acid accumulated in the culture medium at the largest amounts.
The mutant of Example 2, strain CISM10, was used as the parent strain for Example 3. CISM10 was suspended to 10^7˜10^8 cells/mL in the phosphate buffer (pH 7.0) or citrate buffer (pH 5.5). NTG mutagenesis was performed as in Example 1. Colonies were obtained by suitably suspending and spreading cells on a 3 minimal media (Medium 2), which contained 1.7% agar and 1,500 μg/ml, 2,500 μg/ml, or 3,500 μg/mL of 3,4-dehydroproline, respectively. Then, each colony was cultivated on the nutrition medium (Medium 1), then cultivated for 24 hours on a seed medium (Medium 3), and cultivated for 3–4 days on a culture medium (Medium 4) thereby to select […] that can produce 5′-inosinic acid accumulated in the culture medium at the largest amounts.

CITP13 = assay: Growth on minimal agar medium containing the agent, strain CITP13; format: cell-based, Corynebacterium ammoniagenes
Protocol: The mutant of Example 4, strain CIAC12, was used as the parent strain for Example 5. CIAC12 was suspended to 10^7˜10^8 cells/mL in the phosphate buffer (pH 7.0) or citrate buffer (pH 5.5). NTG mutagenesis was performed as in Example 1. Colonies were obtained by suitably suspending and spreading cells on a 3 minimal media (Medium 2), which contained 1.7% agar and 20 μg/ml, 50 μg/ml, or 100 μg/mL of L-thiazolidine-4-carboxylic acid, respectively. Then, each colony was cultivated on the nutrition medium (Medium 1), then cultivated for 24 hours on a seed medium (Medium 3), and, cultivated for 3˜4 days on a culture medium (Medium 4) thereby to select CITP13 that can produce 5′-inosinic acid accumulated in the culture medium at the largest amounts.
The mutant of Example 5, strain CITP13, was used as the parent strain for Example 6. CITP13 was suspended to 10^7˜10^8 cells/mL in the phosphate buffer (pH 7.0) or citrate buffer (pH 5.5). NTG mutagenesis was performed as in Example 1. Colonies were obtained by suitably suspending and spreading cells on a 3 minimal media (Medium 2), which contained 1.7% agar and 50 μg/ml, 75 μg/ml, or 100 μg/mL of azaserine, respectively. […]

CIAC12 = assay: Growth on minimal agar medium containing the agent, strain CIAC12; format: cell-based, Corynebacterium ammoniagenes
Protocol: The mutant of Example 3, strain CS101, was used as the parent strain for Example 4. CS101 was suspended to 10^7˜10^8 cells/mL in the phosphate buffer (pH 7.0) or citrate buffer (pH 5.5). NTG muta genesis was performed as in Example 1. Colonies were obtained by suitably suspending and spreading cells on a 3 minimal media (Medium 2), which contained 1.7% agar and 10 μg/ml, 20 μg/ml, or 30 μg/mL of L-azetidine-2-carboxylic acid, respectively. Then, each colony was cultivated on the nutrition medium (Medium 1), then cultivated for 24 hours on a seed medium (Medium 3), and cultivated for 3˜4 days on a culture medium (Medium 4), thereby to select CIAC12 that can produce 5′-inosinic acid accumulated in the culture medium at the largest amounts.

the present strain = assay: Effect of amino acids on synthesis of 5'-inosinic acid by direct fermentation; format: cell-based, Corynebacterium ammoniagenes; details: added to the medium
Text: Accordingly, the present inventors tested the effect of various amino acids on the synthesis of 5′-inosinic acid by direct fermentation. As the result, the inventors determined that the fermentation concentration of 5′-inosinic acid increased upon addition of L-glutamine to the medium. The inventors further determined that the appropriate supply of L-glutamine to the present strain is a rate-limiting step in the synthesis of 5′-inosinic acid.

LY002 = assay: Growth on minimal agar medium containing the agent, strain LY002; format: cell-based, Corynebacterium ammoniagenes
Protocol: as §2
The mutant of Example 1, strain LY002, was used as the parent strain for Example 2. LY002 was suspended to 10^7˜10^8 cells/mL in the phosphate buffer (pH 7.0) or citrate buffer (pH 5.5). NTG mutagenesis was performed as in Example 1. […]

In the case of `O=C(O)C1C=CCN1` (stereo not shown) [3,4-dehydroproline], the “Resistance to agent (concentration)” value ([1]; strain ATCC6872) is reported as 1,000 μg/ml, the “Concentration of 3,4-dehydroproline at which the microorganism shows resistance” value (CS101) is reported as 3,500 μg/ml and the “Resistance to agent (concentration)” value [2] is reported as 3,500 μg/ml. For the same compound, the “Concentration of 3,4-dehydroproline at which the microorganism shows resistance” value (CISM10) was 1,000 μg/ml.
With `[N-]=[N+]=CC(=O)OC[C@H](N)C(=O)O` [Azaserine] the “Resistance to agent (concentration)” value ([1]; strain ATCC6872) was 25 µg/mL, the “Concentration of azaserine at which the microorganism shows resistance” value (CITP13) was 25 µg/mL and the “Concentration of azaserine at which the microorganism shows resistance” value [2] was 100 µg/mL. For the same compound, the “Resistance to agent (concentration)” value [2] was 100 µg/mL.
With `O=C(O)[C@@H]1CCN1` [L-azetidine-2-carboxylic acid] the “Concentration of L-azetidine-2-carboxylic acid at which the microorganism shows resistance” value (CIAC12) was 30 mg/mL, the “Resistance to agent (concentration)” value ([1]; strain ATCC6872) was 5000 µg/mL and the “Resistance to agent (concentration)” value [2] was 30000 µg/mL. The “Concentration of L-azetidine-2-carboxylic acid at which the microorganism shows resistance” value (CISM10) was 5 mg/mL.
With `NC(=O)CC[C@H](N)C(=O)O` [L-glutamine] the “Fermentation concentration of 5'-inosinic acid upon addition to the medium” value (the present strain) was “increased”.
For `O=C(O)[C@@H]1CSCN1` [L-thiazolidine-4-carboxylic acid], the “Resistance to agent (concentration)” value ([1]; strain ATCC6872) was 10 µg/mL, the “Concentration of L-thiazolidine-4-carboxylic acid at which the microorganism shows resistance” value (CS101) was 100 µg/mL and the “Resistance to agent (concentration)” value [2] was 100 µg/mL. The “Concentration of L-thiazolidine-4-carboxylic acid at which the microorganism shows resistance” value (CISM10) was 10 µg/mL.
For `[H]/N=C(/N)N[C@H]1[C@H](O)[C@@H](O)[C@H](O[C@@H]2O[C@@H](C)[C@](O)(C=O)[C@H]2O[C@@H]2O[C@@H](CO)[C@H](O)[C@@H](O)[C@@H]2NC)[C@@H](N/C(N)=N\[H])[C@@H]1O` [Streptomycin, streptomycin], the “Concentration of streptomycin at which the microorganism shows resistance” value (LY002) was 500 µg/mL, the “Resistance to agent (concentration)” value ([1]; strain ATCC6872) was 500 µg/mL and the “Resistance to agent (concentration)” value [2] was 2,000 μg/ml. For the same compound, the “Concentration of streptomycin at which the microorganism shows resistance” value (CISM10) was 2,000 μg/ml.
With lysozyme the “Concentration of lysozyme at which the microorganism shows sensitivity” value (LY002) was 8 µg/mL, the “Sensitivity to lysozyme (minimal growth inhibition concentration)” value ([1]; strain ATCC6872) was 80 µg/mL and the “Concentration of lysozyme at which the microorganism shows sensitivity” value ([1]; strain CJ112) was 80 µg/mL. For the same compound, the “Sensitivity to lysozyme (minimal growth inhibition concentration)” value [2] was 8 µg/mL.
